Data reported in patent publication US8158168B2, “Anti-gastritis and anti-ulcer agent containing Momordicae semen extract and momordica saponin I isolated from the same” (SK Chemicals Co., Ltd., priority 2005, dated 2012).

Experiments:
[1] = tested on: stomach damage induced by diclofenac; test: Protective effect of momordica saponin I against stomach damage induced by diclofenac (Example 5); assay type: in vivo, Sprague-Dawley rats; settings: rat, diclofenac 40 mg/kg oral and at the same time momordica saponin I 20 mg/kg or Mucosta 100 mg/kg oral; observed 4 hours later; points 0 to 3
[2] = tested on: damage of gastric mucosa induced by alcohol; test: Protective effect against stomach damage induced by alcohol (momordica saponin I, Example 2); assay type: in vivo, Sprague-Dawley rats; settings: rat, momordica saponin I 20 mg/kg, Mucosta 100 mg/kg, 30 minutes before 1.5 mL 100% ethanol oral, observed 3 hours later; for gastric mucosa damage index ± standard deviation: Bleeding / gastric mucosa damage index ± standard deviation: Edema / gastric mucosa damage index ± standard deviation: Erosion / gastric mucosa damage index ± standard deviation: Flare / gastric mucosa damage index ± standard deviation: Hyperemia: points 0 to 3
Method: A rat model test was performed using 100% ethanol as stomach damage inducing factor to evaluate the protective effect of momordica saponin I for gastric mucosa. The momordica saponin I isolated in Preparative Example 5 was dissolved in 0.5% aqueous carboxymethyl cellulose solution to 2 mg/mL and was used as a test drug. Mucosta (rebamipide, Korea Otsuka Pharmaceuticals) dissolved in 0.5% aqueous carboxymethyl cellulose solution to 10 mg/mL was used as control drug.
(§1) Seven-week-old specific pathogen free (SPF) male Sprague-Dawley rats were purchased from Charles River. After 1 week of adaptation, healthy rats with a weight of 220-225 g were selected for the test. Five rats per each group were fasted for 18 hours with drinking water freely available. Momordica saponin I were administered at a dosage of 20 mg/kg and the control drug Mucosta were administered at a dosage of 100 mg/kg. After 30 minutes, 1.5 mL of 100% ethanol was orally administered. 3 hours later, the rats were anesthetized with ether and the stomach was taken out in order to evaluate the drug's effect of preventing the stomach damage. […] The damage of the stomach was classified into flare, congestion, hemorrhage, inflammation and edema. The severity of the damage was evaluated with points ranging from 0 to 3 (the higher the point, the severer the damage.).

[3] = tested on: secretion of gastric acid; test: Gastric acid secretion inhibition test in rats (Example 6); assay type: in vivo, Sprague-Dawley rats; settings: 1 hour later, gastric juice diluted 10 times with distilled water
Method: Momordica saponin I was orally administered to Sprague-Dawley rats and the acidity in the stomach was measured in order to evaluate the effect of momordica saponin I on the secretion of gastric acid. The momordica saponin I isolated in Preparative Example 4 was dissolved in 0.5% aqueous carboxymethyl cellulose solution to concentrations of 0.5, 1.5 and 4.5 mg/mL. 7-week-old specific pathogen free (SPF) male Sprague-Dawley rats were purchased from Charles River. After 1 week of adaptation, healthy rats with a weight of 220-225 g were selected for the test. Two rats per each group were fasted for 18 hours with drinking water freely available and momordica saponin I were administered at dosages of 5, 15 and 45 mg/kg. 1 hour later, the rats were anesthetized with ether. 0.5 mL of the gastric juice taken from the stomach was diluted 10 times with distilled water to obtain a 5 mL sample. The pH of the diluted gastric juice was measured with a pH meter.

[4] = tested on: stomach damage induced by diclofenac; test: Protective effect of momordica saponin I against stomach damage induced by diclofenac (Example 5); assay type: in vivo, Sprague-Dawley rats; settings: rat, diclofenac 40 mg/kg oral and at the same time momordica saponin I 20 mg/kg or Mucosta 100 mg/kg oral, observed 4 hours later; for gastric mucosa damage index ± standard deviation: Bleeding / gastric mucosa damage index ± standard deviation: Edema / gastric mucosa damage index ± standard deviation: Flare / gastric mucosa damage index ± standard deviation: Hyperemia: points 0 to 3
Method: Diclofenac and the test drug were administered simultaneously and the damage of gastric mucosa was observed 4 hours later. Diclofenac was dissolved in 0.5% aqueous carboxymethyl cellulose solution to […] and the test drug was prepared as in Example 2.
(§2) Seven-week-old specific pathogen free (SPF) male Sprague-Dawley rats were purchased from Charles River. After 1 week of adaptation, healthy rats with a weight of 220-225 g were selected for the test. Five rats per each group were fasted for 18 hours with drinking water freely available and diclofenac was orally administered at a dosage of 40 mg/kg and, at the same time, the test drug, or momordica saponin I, was orally administered at a dosage of 20 mg/kg and the control drug Mucosta was orally administered at a dosage of 100 mg/kg. 4 hours later, the rats were anesthetized with ether and the stomach was taken out in order to evaluate the drug's effect of treating gastritis. […] The damage of the stomach was classified into flare, congestion, hemorrhage, inflammation and edema. The severity of the damage was evaluated with points ranging from 0 to 3 (The higher the point, the severer the damage).

Sprague-Dawley rats = test: Acute toxicity test for oral administration of momordica saponin I in rats (Example 8); assay type: in vivo; settings: rat
Method: Acute toxicity test was performed as follows using 6-week-old specific pathogen free (SPF) Sprague-Dawley rats
To two rats per each group, the momordica saponin I isolated in Preparative Example 5 was orally administered once at a dosage of 400 mg/kg. Survival, clinical manifestations and body weight change were observed and hematological and serum biochemical analysis was performed. Autopsy was performed to observe abnormalities in abdominal and thoracic organs.

[5] = tested on: stomach damage induced by diclofenac; test: Protective effect against stomach damage induced by diclofenac, simultaneous abdominal administration (Example 4); assay type: in vivo, Sprague-Dawley rats; settings: rat, diclofenac 40 mg/kg oral and at the same time drugs 100 mg/kg abdominally, observed 6 hours later
Method: Differently from Example 3, diclofenac and the test drug were administered simultaneously and the damage of gastric mucosa was observed 6 hours later. In order to prevent the direct interaction between diclofenac and the test drug, the test drug was administered abdominally. Similar to that in Example 3, diclofenac and the test drug were dissolved in 0.5% aqueous carboxymethyl cellulose solution to 10 mg/mL.
as §2, with “or the Momordicae semen extract,” for “or momordica saponin I, was orally administered at a dosage of 20 mg/kg”, “control drugs Stillen and” for “control drug”, “Mucosta were abdominally” for “Mucosta was orally”, “mg/kg. 6” for “mg/kg. 4”, “to 3.” for “to 3 (The higher the point, the severer the damage).”

[6] = tested on: stomach damage induced by diclofenac; test: Healing effect on stomach damage induced by diclofenac (Example 3); assay type: in vivo, Sprague-Dawley rats; settings: rat, diclofenac 40 mg/kg oral, drugs 100 mg/kg 6 hours after, observed 18 hours later
Method: A rat model test was performed using diclofenac, a representative non-steroidal anti-inflammatory drug (NSAID), as stomach damage inducing factor to evaluate the effect of the Momordicae semen extract of Example 1 for treating gastritis. The Momordicae semen extract was dissolved in 0.5% aqueous carboxymethyl cellulose solution to 10 mg/mL and was used as a test drug. Stillen (artemisia extract, Dong-A Pharmaceutical) and Mucosta (rebamipide, Korea Otsuka Pharmaceuticals) dissolved in 0.5% aqueous carboxymethyl cellulose solution to 10 mg/mL were used as control drugs.
as §2, with “40 mg/kg. After 6 hours of stomach damage inducement,” for “40 mg/kg and, at”, “the Momordicae semen extract” for “the same time, the test drug, or momordica saponin I, was orally administered at a dosage of 20 mg/kg”, “control drugs Stillen and” for “control drug”, “Mucosta were” for “Mucosta was orally”, “mg/kg. 18” for “mg/kg. 4”, “to 3.” for “to 3 (The higher the point, the severer the damage).”

[7] = tested on: damage of gastric mucosa induced by alcohol; test: Protective effect against stomach damage induced by alcohol (Momordicae semen extract, Example 1); assay type: in vivo, Sprague-Dawley rats; settings: rat, drugs 100 mg/kg 1 hour before 1.5 mL 100% ethanol oral, stomach observed 6 hours later
Method: A rat model test was performed using 100% ethanol as stomach damage inducing factor to evaluate the protective effect of the Momordicae semen extract for gastric mucosa. The Momordicae semen extract of Preparative Example 1 was dissolved in 0.5% aqueous carboxymethyl cellulose solution to 10 mg/mL and was used as a test drug. Stillen (artemisia extract, Dong-A Pharmaceutical) and Mucosta (rebamipide, Korea Otsuka Pharmaceuticals) dissolved in 0.5% aqueous carboxymethyl cellulose solution to 10 mg/mL were used as control drugs.
as §1, with “available. The Momordicae semen extract” for “available. Momordica saponin I were administered at a dosage of 20 mg/kg”, “control drugs Stillen and” for “control drug”, “After 1 hour,” for “After 30 minutes,”, “administered. 6” for “administered. 3”, “was categorized” for “was classified”, “to 3.” for “to 3 (the higher the point, the severer the damage.).”

CC1OC(OC2C(O)C(C(=O)O)OC(OC3CCC4(C)C(CCC5(C)C4CC=C4C6CC(C)(C)CCC6(C(=O)OC6OC(C)C(O)C(O)C6OC6OC(C)C(OC7OCC(O)C(O)C7O)C(OC7OC(CO)C(O)C(OC8OCC(O)C(O)C8O)C7O)C6O)CCC45C)C3(C)C=O)C2OC2OC(CO)C(O)C(O)C2O)C(O)C(O)C1O [Momordica saponin I, 3-O-β-D-galactopyranosyl(1->2)-[α-L-rhamnopyranosyl(1->3)]-β-D-glucuronopyranosido-28-O-β-D-xylopyranosyl(1->3)-β-D-glucopyranosyl(1->3)-[β-D-xylopyranosyl(1->4)]-α-L-rhamnopyranosyl(1->2)-β-D-fucopyranosylgypsogenin] was tested, and the “gastric mucosa damage index ± standard deviation: Erosion” value [1] was 1.3 ± 0.3, the “gastric mucosa damage index ± standard deviation: Total” value [2] was 4.4 ± 1.1 and the “gastric mucosa damage index ± standard deviation: Bleeding” value [2] was 0.9 ± 0.2. The “gastric mucosa damage index ± standard deviation: Edema” value [2] was 1 ± 0.3, the “gastric mucosa damage index ± standard deviation: Erosion” value [2] was 0.5 ± 0.1 and the “gastric mucosa damage index ± standard deviation: Flare” value [2] was 1.1 ± 0.2. For the same compound, the “gastric mucosa damage index ± standard deviation: Hyperemia” value [2] was 0.9 ± 0.3, the “Acidity in the stomach of rats (pH ± standard deviation)” value (from here on “Acidity … (pH ± standard deviation)”) ([3]; 5 mg/kg oral) was 3.3 ± 0.1 pH and the “Acidity … (pH ± standard deviation)” value ([3]; 15 mg/kg oral) was 4.3 ± 0.8 pH. The “Acidity … (pH ± standard deviation)” value ([3]; 45 mg/kg oral) was 5.2 ± 0.6 pH, the “gastric mucosa damage index ± standard deviation: Total” value [4] was 5.2 ± 1.2 and the “gastric mucosa damage index ± standard deviation: Bleeding” value [4] was 0.7 ± 0.2. The “gastric mucosa damage index ± standard deviation: Edema” value [4] was 1 ± 0.2, the “gastric mucosa damage index ± standard deviation: Flare” value [4] was 1.3 ± 0.2 and the “gastric mucosa damage index ± standard deviation: Hyperemia” value [4] was 0.9 ± 0.3. The “clinical manifestation or death” value (Sprague-Dawley rats; once at a dosage of 400 mg/kg) was “no noticeable clinical manifestation or death”, the “toxicity in body weight change, hematological and serum biochemical analysis and autopsy” value (Sprague-Dawley rats; once at a dosage of 400 mg/kg) was “no toxicity was found” and the “minimum oral administration lethal dose (LD50)” value (Sprague-Dawley rats; single administration) was ≥ 400 mg/kg.
With O=C(NC(Cc1cc(=O)[nH]c2ccccc12)C(=O)O)c1ccc(Cl)cc1 (stereo not drawn) [Mucosta, rebamipide] the “gastric mucosa damage index ± standard deviation: Erosion” value [1] was 2.2 ± 0.4, the “gastric mucosa damage index: Total” value [5] was 9.8 ± 1.2 and the “gastric mucosa damage index: Bleeding” value ([5]; points 0 to 3) was 1.4 ± 0.5. The “gastric mucosa damage index: Edema” value ([5]; points 0 to 3) was 1.2 ± 0.2, the “gastric mucosa damage index: Erosion” value ([5]; points 0 to 3) was 2.4 ± 0.4 and the “gastric mucosa damage index: Flare” value ([5]; points 0 to 3) was 2.6 ± 0.2. The “gastric mucosa damage index: Hyperemia” value ([5]; points 0 to 3) was 2.2 ± 0.4, the “gastric mucosa damage index ± standard deviation: Total” value [2] was 6.1 ± 1.2 and the “gastric mucosa damage index ± standard deviation: Bleeding” value [2] was 1.4 ± 0.2. For the same compound, the “gastric mucosa damage index ± standard deviation: Edema” value [2] was 1.2 ± 0.3, the “gastric mucosa damage index ± standard deviation: Erosion” value [2] was 0.9 ± 0.3 and the “gastric mucosa damage index ± standard deviation: Flare” value [2] was 1.2 ± 0.2. For the same compound, the “gastric mucosa damage index ± standard deviation: Hyperemia” value [2] was 1.4 ± 0.2, the “gastric mucosa damage index: Total” value [6] was 7.4 ± 0.7 and the “gastric mucosa damage index: Bleeding” value ([6]; points 0 to 3) was 1.2 ± 0.2. For the same compound, the “gastric mucosa damage index: Edema” value ([6]; points 0 to 3) was 2.2 ± 0.2, the “gastric mucosa damage index: Erosion” value ([6]; points 0 to 3) was 2.4 ± 0.2 and the “gastric mucosa damage index: Flare” value ([6]; points 0 to 3) was 0.8 ± 0.4. The “gastric mucosa damage index: Hyperemia” value ([6]; points 0 to 3) was 0.8 ± 0.4, the “gastric mucosa damage index ± standard deviation: Total” value [4] was 8.5 ± 1.5 and the “gastric mucosa damage index ± standard deviation: Bleeding” value [4] was 1.5 ± 0.3. The “gastric mucosa damage index ± standard deviation: Edema” value [4] was 1.2 ± 0.1, the “gastric mucosa damage index ± standard deviation: Flare” value [4] was 2.3 ± 0.3 and the “gastric mucosa damage index ± standard deviation: Hyperemia” value [4] was 1.3 ± 0.4. The “gastric mucosa damage index: Total” value [7] was 8.1 ± 0.8, the “gastric mucosa damage index: Bleeding” value ([7]; points 0 to 3) was 1.5 ± 0.2 and the “gastric mucosa damage index: Edema” value ([7]; points 0 to 3) was 1.3 ± 0.2. The “gastric mucosa damage index: Erosion” value ([7]; points 0 to 3) was 1.8 ± 0.2, the “gastric mucosa damage index: Flare” value ([7]; points 0 to 3) was 1.3 ± 0.2 and the “gastric mucosa damage index: Hyperemia” value ([7]; points 0 to 3) was 1.3 ± 0.4.
